Data: patent US20040087539A1, “Method of treating conditions related to platelet activity” (priority 2003, published 2004)

Legend:
[1] = system: platelets; assay: Low-dose α-thrombin-induced aggregation of washed platelets; format: cell-based, human
Method: Fresh blood from healthy volunteers was anticoagulated with 1/7 volume of ACD (2.5% trisodium citrate, 2% dextrose and 1.5% citric acid). Platelets were washed with CGS buffer (sodium chloride 0.12 M, trisodium citrate 0.0129 M and d-glucose 0.03 M, pH 6.5), resuspended in modified Tyrode's solution and allowed to incubate at 22° C. for 1 hours as previously described. In experiments using platelet-rich plasma (PRP), 1/10 volume of 3.8% trisodium citrate was used as anticoagulant. Platelet aggregation was measured using a turbidometric platelet aggregometer (Chrono-Log) at 37° C. vWF-dependent platelet aggregation was induced by addition of ristocetin or botrocetin to PRP. To differentiate CPIb-IX-mediated platelet agglutination from the second wave of integrin-dependent platelet aggregation, final concentrations of ristocetin were adjusted in each experiment to achieve a two-wave curve of aggregation. Washed platelets were used in platelet aggregation induced by a-thrombin (Enzyme Research Laboratories). To examine the effects of PKG, 100 μM of membrane permeable cGMP analogs, 8-bromo-cGMP or 8-dibutyl-cGMP (Calbiochem), or 1 μM sildenafil citrate (Pfizer) and added simultaneously with subthreshold concentrations of agonists. PKG inhibitors KT5823 (2 pM) and Rp-8PCPT-cGMP (0.2 mM) were preincubated with platelets at 37° C. for 5 minutes before addition of agonists.
In FIG. 5A, washed platelets were preincubated with 40 pg/mi anti-GPIba monoclonal antibody SZ2, integrin inhibitor RGDS, or inhibitors of PKG, KT5823 (2 μM) or Rp-8pCPT-cGMP (0.2 mM) (Calbiochem), for 5 min. Platelets also were preincubated with DMSO (vehicle for KT5823), KT5720 or buffer (Control) as controls. α-Thrombin (0.05 units/mi) then was added to induce platelet aggregation. Nonspecific JgG and RGES peptides also were examined as additional controls, but had no effect (not shown). In FIG. 5B, a subthreshold dose of thrombin was added to platelets immediately followed by addition of PKG activator 8-bromo-cGMP or buffer (Control). Shown in the figure are the representative results of at least three experiments.
In FIG. 6A, increasing concentrations of sildenafil or control 0.15 M NaCl solution were added to platelet-rich plasma followed by a subthreshold concentration of ristocetin. Platelet aggregation was recorded using a platelet aggregometer. In FIG. 6B, sildenafil or control buffer was added to washed platelets followed by addition of subthreshold doses of thrombin to induce platelet aggregation. It was noted that platelet aggregation occurs in the presence of sildenafil. The figure includes the representative results of at least three experiments.
In FIG. 7A, PRP was preincubated with 0.1 mM 8-bromo-cGMP for increasing lengths of time at 37° C. as indicated. The vWF modulator, ristocetin (1.25 mg/ml), then was added to induce platelet aggregation in a turbidometric platelet aggregometer. In FIG. 7B, PRP was preincubated with a high concentration of 8-bromo-cGMP (1 mM) for 5 minutes. Ristocetin then was added to induce platelet aggregation. In FIGS. 7C and 7D, washed platelets in modified Tyrode's solution were preincubated with 1 mM 8-bromo-cGMP (C), or various concentrations of 8-pCPT-cGMP (D) at 37° C. for 5 minutes. Thrombin (0.05 u/ml) then was added to induce platelet aggregation.

[2] = system: CHO cells expressing human platelet receptors; assay: Cell adhesion to immobilized vWF under flow; format: cell-based, Chinese Hamster; conditions: FIG. 2C; sildenafil 5 μM, RGDS 4 mM; 8-bromo-cGMP not shown
Method: CHO cells expressing human platelet receptors were resuspended in modified Tyrode's buffer, pH 7.4, containing 1 mg/mi of bovine serum albumin (BSA) (see Ref. 46), and final cell count was 5×10^5/ml. […] Purified human vWF (10 μg/ml in 0.1 M NaHCO3, pH 8.3) was added to glass microcapillary tubes (inner diameter of 1.33 mm and a length of 7.2 cm), and incubated at 4° C. for 20 h. The vWF-coated microcapillary tubes then were incubated with 5% BSA. After washing, the cell suspension was aspirated through the tube by a syringe pump (Harvard Apparatus Inc.) at desired shear rates for 1.2 minutes and washed with modified Tyrode's buffer for additional 10 minutes at the same shear rates to remove transiently adherent cells. The experiments were continuously recorded on videotape using a video cassette recorder (model 9500, Sony). The number of stably adherent cell on immobilized vWF was counted on images obtained at 20 randomly selected positions in the vWF-coated tubes.
In FIGS. 2A and B, vWF-coated capillary tubes were perfused with equivalent numbers (5×10^5/ml) of CHO cells expressing recombinant GPLb-JX alone (1b9), integrin αIIbβ3 alone (2b3a), both GPIb-IX and integrin αIIbβ3 (123) or expressing GPJb-JX, integrin α^IIbβ3 and PKG Ia (123PKG) at a shear rates of 800 s^−1 (A) or 1500 s^−1 (B) for 1.2 minutes, and then perfused with the modified Tyrodes buffer for 10 minutes at the same shear rates to wash out transient adherent cells. The expenments were recorded in real time. Cells stably adherent to vWF-coated capillary tubes at 20 randomly selected locations were counted.
In FIG. 2C, vector-transfected 123 cells (123) or 123PKG cells also was perfused into vWF-coated glass capillary tubes as described in FIG. 2A in the absence or presence (+RGDS) of an integrin inhibitor RGDS peptide (4 mM) and in the absence (Control) or presence of cGMP-enhancing drug, sildenafil (5 μM). […] The experiments were repeated at least three times.

Q: `Nc1nc2c(nc(Br)n2[C@@H]2O[C@@H]3COP(=O)(O)O[C@H]3[C@H]2O)c(=O)[nH]1` [8-bromo-cGMP] was tested. Which “GPIb-IX-dependent platelet activation, agent added simultaneously with thrombin” value ([1]; 8-bromo-cGMP 100 μM, FIG. 5) did it give?
A: The value was “promoted”.

Q: What about the “platelet aggregation together with a subthreshold concentration of thrombin” value ([1]; washed platelets, thrombin 0.02 units/ml, FIGS. 5B, 6B) of the same compound?
A: The value was “induced platelet aggregation”.

Q: What about the “stable adhesion of PKG-expressing 123 cells (123PKG) to vWF under flow” value [2] of the same compound?
A: Its value is “enhanced”.
